Assay results from US20250074981A1, “COMBINATION THERAPY WITH DEXAMETHASONE AND TUMOR-SPECIFIC T CELL ENGAGING MULTI-SPECIFIC ANTIBODIES FOR TREATING CANCER” (MEMORIAL SLOAN-KETTERING CANCER CENTER, priority 2021, published 2025).
Read-outs that look alike come from different tables or passages of the source.

Assays:
GD2(+) osteosarcoma PDX = assay: Bioluminescence imaging of Luc(+) GD2-EATs in GD2(+) osteosarcoma PDX; assay type: in vivo, mice; details: GD2-EATs plus HD dexamethasone
Procedure: (§1) T cells isolated from peripheral blood were stimulated with Dynabeads™ Human T-Activator CD3/CD28 for 24 hours. T cells were transduced with retroviral constructs containing tdTomato and click beetle red luciferase in RetroNectin-coated 6-well plates in the presence of IL-2 (100 IU/ml) and protamine sulfate ([…]). Transduced T cells were cultured for 8 days before being used in animal experiments.
(§2) Mice were anesthetized and imaged after intravenous injection of 3 mg of D-luciferin (Gold Biotechnology, St. Louis, MO) on different days post T cell injection. Images were acquired using IVIS Spectrum CT In Vivo Imaging System (Caliper Life Sciences, Waltham, MA). Bioluminescence images were overlaid with photographs, and regions of interest (ROI) were drawn based on the location and contour of tumor using Living image 2.60 (Xenogen, Alameda, CA). The total counts of photons (photon/s) were obtained. Bioluminescence signals (total flux, photon/s) before T cell injection were used as baselines.

M37 breast cancer PDX = assay: In vivo anti-tumor effect in M37 breast cancer PDX; parameters: species or system mice; details: low and intermediate dosage of dexamethasone; due to diarrhea from C. difficile infection
Procedure: Increasing dosage of dexamethasone was tested as a premedication administered i.p. before the i.v. injection of HER2×CD3-BsAb plus activated human T cells in mice xenografted s.c. with M37 breast cancer PDX using the schedule detailed in FIG. 9A. The three dosages of intraperitoneal dexamethasone were 2 mg/kg (Dex 2), 8 mg/kg (Dex 8) and 32 mg/kg (Dex 32) once a week×3 weeks.

neuroblastoma PDXs = assay: Flow cytometry of tumor infiltrating myeloid cells and lymphocytes in neuroblastoma PDXs; assay type: in vivo, mice; details: day 10 post-treatment
Text: (§3) For blood and tumor samples from mice, the following antibodies were purchased from Biolegend: anti-human CD45-APC (HI30), anti-human CD3-Percp/Cy5.5 (SK7), anti-human CD8-FITC, anti-human CD4-PE/Cy7, anti-mouse CD45-APC, anti-mouse CD45-Brilliant Violet 711™ (30-F11), anti-mouse CD11b-Brilliant Violet 570™ (M1/70), anti-mouse Ly6G-FITC, anti-mouse Ly6C-PerCP/Cy5.5, and anti-mouse F4/80-PE/Cy7. Statistical analysis
(§4) Flow cytometry analysis. For flow cytometry analyses of blood and tumor samples from mice, the following antibodies were purchased from Biolegend: anti-human CD45-APC (HI30), anti-human CD3-Percp/Cy5.5 (SK7), anti-human CD8-FITC, anti-human CD4-PE/Cy7, anti-mouse CD45-Brilliant Violet 711™ (30-F11), anti-mouse CD11b-Brilliant Violet 570™ (M1/70), anti-mouse Ly6G-FITC, anti-mouse Ly6C-PerCP/Cy5.5, and anti-mouse F4/80-PE.

[1] = tested on: osteosarcoma cell line 143B xenografts; assay type: in vivo, mice; details: day 60 post-treatment, agents added to GD2-EATs, vs GD2-EATs alone
Text: as §3, §4

[2] = tested on: osteosarcoma cell line 143B xenografts; assay type: in vivo, mice; details: agents added to GD2-EATs, vs GD2-EATs alone
Procedure: Immunohistochemistry (IHC) and immunofluorescence (IF) staining were performed at the MSK Molecular Cytology Core Facility using Discovery XT processor (Ventana Medical Systems, Oro Valley, AZ) as described by Xu H, et al., Cancer Immunol Res 3: 266-277 (2015), the entirety of which is incorporated herein by reference. Tumor samples were fixed and embedded in paraffin. Anti-human CD45, anti-human CD3, and anti-mouse CD68 antibodies were used, which was followed by biotinylated secondary antibody. The detection was performed using a DAB detection kit (Ventana Medical Systems, Oro Valley, AZ) or Alexa Fluor™ 488 or 568 Tyramide Reagent (Invitrogen, Carlsbad, CA). IHC images were captured from tumor sections using a Nikon ECLIPSE Ni-U microscope and NIS-Elements 4.0 imaging software. IF images were captured using Leica Inverted Confocal SP8 and processed with Imaris (Bitplane, Zurich, Switzerland). Antigen positive cells were counted with Qupath 0.1.2.
Immunohistochemistry and immunofluorescence staining. Immunohistochemistry (TIC) staining were performed at the MSK Molecular Cytology Core Facility using Discovery XT processor (Ventana Medical Systems). Tumor samples were fixed and embedded in paraffin. […] Antigen positive cells were counted with Qupath 0.1.2 or using positive pixel count analysis.

[3] = tested on: HER2(+) osteosarcoma PDXs, HGSOS; assay: Bioluminescence imaging of Luc(+) HER2-EATs in HER2(+) osteosarcoma PDX (HGSOS / HGSOC1); assay type: in vivo, mice; details: control HER2-EATs
Procedure: as §1, §2
T cell transduction. T cells isolated from peripheral blood were stimulated with Dynabeads™ Human T-Activator CD3/CD28 for 24 hours. T cells were transduced with retroviral constructs containing tdTomato and click beetle red luciferase in RetroNectin-coated 6-well plates in the presence of IL-2 (100 IU/ml) and protamine sulfate (4 μg/mL). […]

hVEGF = assay: Serum VEGF levels by Quantikine ELISA, HGSOC1 ovarian cancer PDX mice; assay type: in vivo, human; details: day 5 post-treatment, 48 hours after 2nd dose; with HER2-EATs
Procedure: Concentration of VEGF serum levels were measured using a commercially available enzyme-linked immunosorbent assay (ELISA) kit (R&D Systems, Minneapolis, MN) according to the manufacturer's instruction. Briefly, serum samples and standards were incubated for 2 hours in a microplate pre-coated with human or murine anti-VEGF monoclonal antibodies. After washing three times, enzyme-linked anti-VEGF polyclonal antibodies were added. Unbound antibodies were removed by washing. […] All samples were run in triplicate, and a standard curve was established for each assay. The sensitivity of the assay was <9.0 pg/ml. Inter- and intra-assay variations were <10%.
Measurement of serum VEGF levels. Serum VEGF levels in murine plasma were measured using Quantikine enzyme-linked immunosorbent assay (ELISA) kit (R and D Systems Cat #DVE00, RRID:AB_2800364) according to the manufacturer's instruction. […] All samples were run in triplicate, and a standard curve was established for each assay.

[4] = tested on: TH1 cell cytokines (IL-2, IFN-γ, and TNF-α); assay: TH1 cell cytokine levels after GD2-EATs with VEGF blockades, neuroblastoma PDX mice; assay type: in vivo; details: 2 hours after the first dose of GD2-EATs; combination group
Procedure: Cytokine release assays. EAT-induced human cytokine release was analyzed in vitro and in vivo. Human Th1 cell released cytokines were analyzed by LEGENDplex™ Human Th1 Panel (Biolegend, Cat #741035). Five T cell cytokines including IL-2, IL-6, IL-10, IFN-γ and TNF-α were analyzed using mouse serum after treatment with EATs with or without VEGF blockade.

GD2(+) neuroblastoma PDX = assay: Bioluminescence imaging of Luc(+) GD2-EATs in GD2(+) neuroblastoma PDX; assay type: in vivo, mice
Procedure: T cell transduction. T cells isolated from peripheral blood were stimulated with Dynabeads™ Human T-Activator CD3/CD28 for 24 hours. T cells were transduced with retroviral constructs containing tdTomato and click beetle red luciferase in RetroNectin-coated 6-well plates in the presence of IL-2 (100 IU/ml) and protamine sulfate (4 μg/mL). Transduced T cells were cultured for 8 days before being used in animal experiments.
Bioluminescence imaging. Mice were anesthetized and imaged after intravenous injection of 3 mg of D-luciferin (Gold Biotechnology) on different days post T cell injection. Images were acquired using IVIS Spectrum CT In vivo Imaging System (Caliper Life Sciences). Bioluminescence images were overlaid with photographs, and regions of interest (ROI) were drawn based on the location and contour of tumor using Living image 2.60 (Xenogen). The total counts of photons (photon/s) were obtained. Bioluminescence signals (total flux, photon/s) before T cell injection were used as baselines.

[5] = tested on: neuroblastoma patient-derived xenografts; assay: IHC positive pixel count analysis of CD3, CD4, CD8 T cells in neuroblastoma PDXs; assay type: in vivo, mice; details: day 10 post-treatment; added to GD2-EATs
Procedure: (§5) Immunohistochemistry and immunofluorescence staining. Immunohistochemistry (TIC) staining were performed at the MSK Molecular Cytology Core Facility using Discovery XT processor (Ventana Medical Systems). Tumor samples were fixed and embedded in paraffin. Anti-human CD45, anti-human CD3, anti-human CD4, anti-human CD8, anti-mouse CD31 antibodies were used, which was followed by biotinylated secondary antibody. The detection was performed using a DAB detection kit (Ventana Medical Systems) or Alexa Fluor™ 488 or 568 Tyramide Reagent (Invitrogen). IHC images were captured from tumor sections using a Nikon ECLIPSE Ni-U microscope and NIS-Elements 4.0 imaging software. Antigen positive cells were counted with Qupath 0.1.2 or using positive pixel count analysis.
(§6) Positive Pixel Count Analysis. IHC slides were scanned (Aperio ScanScope XT) and analyzed by comparing positive pixel counts (Aperio Technologies). For analyzing tumor infiltrating lymphocytes, the largest area of intact tumor tissue was included, and oblique sections were avoided. Each slide was visually inspected to ensure specificity and sensitivity of antibody staining. After positive pixel count analysis was run, analyzed slides were examined to confirm that positively identified pixels were consistent with lymphocyte staining and not background staining. Percentages were calculated as the total number of positive pixels divided by the total number of pixels (% positive pixels/total pixels).

[6] = tested on: red blood cell, leukocyte, or platelet counts; assay: Complete blood count after GD2-EATs with VEGF blockades, neuroblastoma PDX mice; assay type: in vivo; details: GD2-EATs following bevacizumab or DC101
Procedure: To test if VEGF blockades affected complete blood cell counts (CBC) or frequencies of tumor infiltrating myeloid cells (TIMs), CBC and flow cytometry analysis of tumors were done after the first and third doses of GD2-EATs following bevacizumab or DC101. […] The effect on TIMs was also analyzed using flow cytometry of tumors. […] TIM analysis in a second tumor model was repeated using 143B CDXs where blood and tumors were analyzed on day 5 and day 60 post treatment, respectively.

tumor microvasculature = assay: IHC of intratumoral blood vessels (mCD31) and HIF-1α in neuroblastoma PDXs; assay type: in vivo, mice
Procedure: as §5
as §6, with “Each slide was visually inspected to ensure specificity and sensitivity of antibody staining.” left out

[7] = tested on: osteosarcoma cell line 143B xenografts; assay: In vivo anti-tumor effect against osteosarcoma cell line 143B xenografts
Procedure: All animal procedures were performed in compliance with Memorial Sloan Kettering Cancer Center's institutional Animal Care and Use Committee (IACUC) guidelines. BALB/c Rag2^−/−IL-2Rγc^−/− (BRG) mice were used in this study. Target antigen (+) patient-derived xenograft (PDX) was established from fresh surgical specimens with MSKCC IRB approval. Tumor cells in Matrigel (Corning Corp, Corning, NY) were implanted subcutaneously on the right flank of each mouse. Tumor size was measured using handheld Peira TM900 imaging device (Piera, Brussels, BE). Tumor growth curves and overall survival was analyzed, and the overall survival was defined as the time from start of treatment to when tumor volume reached 2000 mm^3. To define the well-being of mice, CBC analyses, changes in body weight, behavior and physical appearance were monitored. All animal experiments were repeated twice more with different donor's T cells to ensure that the results were reliable.
In vivo anti-tumor effect was compared by area under curve (AUC) and survival curves, which were calculated. Differences between samples indicated in the figures were tested for statistical significance by two-tailed Student's t-test for two sets of data while one-way ANOVA with Tukey's post hoc test was used to among three or more sets of data. […]
Therapeutic study with mouse xenograft model All animal procedures were performed in compliance with Memorial Sloan Kettering Cancer Center's institutional Animal Care and Use Committee (IACUC) guidelines. […] Treatment was initiated after tumors were established, average tumor volume of 100 mm^3 when measured using TM900 scanner (Piera, Brussels, BE). […] Tumor growth curves and overall survival were analyzed, and the overall survival was defined as the time from start of treatment to when tumor volume reached 2000 mm^3. To define the well-being of mice, CBC analyses, changes in body weight, behavior and physical appearance were monitored. […]
Statistical analysis. […] Area under curves (AUCs) of tumor growth were calculated and compared among groups. […]

[8] = agent added to GD2-EATs, compared to GD2-EATs alone

Molecule: C[C@@H]1C[C@H]2[C@@H]3CCC4=CC(=O)C=C[C@]4(C)[C@@]3(F)[C@@H](O)C[C@]2(C)[C@@]1(O)C(=O)CO [dexamethasone]
- mean signal intensity on day 5 vs GD2-EATs alone (GD2(+) osteosarcoma PDX): more than 10 times
- weight loss (M37 breast cancer PDX): suffered weight loss around day 30 post treatment

Molecule: bevacizumab: anti-human VEGF (hVEGF) antibody bevacizumab
- frequencies of intratumoral hCD45(+) T cells (neuroblastoma PDXs): much more pronounced
- tumor infiltrating hCD45(+) and CD8(+) T cells (TILs) [1]: significantly increased
- tumor infiltrating hCD45(+) and CD8(+) T cells (TILs) ([1]; listed as anti-VEGF): increased frequencies of tumor infiltrating hCD45(+) T cells and CD8(+) T cells
- CD3+ T cell infiltration / count in tumors (IHC) [2]: significantly increased
- CD3+ T cell infiltration / count in tumors (IHC) ([2]; listed as anti-VEGF): significantly increased T cell count
- Fold increase in BLI (AUC-BLI) [3]: 7.5
- serum h-VEGF levels (hVEGF): significantly reduced serum h-VEGF levels
- TH1 cell cytokines (IL-2, IFN-γ, and TNF-α) [4]: significantly lower
- TIL persistence (GD2(+) neuroblastoma PDX; added to GD2-EATs): significantly prolonging TIL persistence
- Fold increase in BLI (AUC-BLI) (GD2(+) neuroblastoma PDX; neuroblastoma PDX, control GD2-EATs): 2.8
- CD4(+) TIL increase compared to GD2-EATs alone [5]: 1.1 fold
- CD8(+) TIL increase compared to GD2-EATs alone [5]: 5 fold
- increase of CD3(+) TILs compared to GD2-EATs alone [5]: 3 fold
- red blood cell, leukocyte, or platelet counts [6]: no significant changes
- high endothelial venules (HEVs) in tumors (tumor microvasculature; combined with GD2-EATs): induced high endothelial venules (HEVs) in tumors
- mCD31(+) blood vessels (tumor microvasculature; day 10 post-treatment): significant increase in mCD31(+) blood vessels
- anti-tumor effect ([7]; VEGF blockade with unarmed T cells): did not show any anti-tumor effect
- survival [7, 8]: prolonging mouse survival
- tumor control / anti-tumor response [7, 8]: significantly improved
